In brackets after ≈: the same amount, converted by molar mass. Read-outs that look alike come from different tables or passages of the source.
Legend:
[1] = test system: Brown plant hoppers and Green plant hoppers; format: in vivo; details: 5 days after treatment
Experimental: In this evaluation, Brown plant hoppers and Green plant hoppers are obtained from laboratory colonies. Paddy leaves are immersed in 1:1 v/v, acetone/water solutions of the test compound, or solution of a combination of the test compounds, for a period of about 4 seconds. Following immersion, leaves are allowed to air-dry for 2-3 hours. Plastic bioassay trays containing multiple open-faced wells (4.0×4.0×2.5 cm) are used. Cut portions of a treated leaf, a moistened cotton dental wick and a single third-instar larva are placed into each well. These wells are covered with an adhesive vented clear plastic sheet which is held under constant fluorescent light at about 30° C. for a predetermined period of time. Larval mortality/morbidity is evaluated at 5 days after treatment. All treatments are replicated 3-4 fold in a randomized complete block design with 15-30 larvae per treatment. Using conventional log-probit analysis, the LC50 of each treatment is determined.
Using the above process, a Chloronicotynyle compound may be evaluated alone and in combination with a second insecticidal compound, Imidacloprid, at dose rates of 0, 15, 18, 21, 24, 27 and 30 ppm and in combination with Acephate 0, 400, 500, 600, 700, 800 ppm in various combination of these strengths.
Synergism can be calculated by using the Colby's method i.e. the expected (or predicted) response of the combination is calculated by taking the product of the observed response for each individual component of the combination when applied alone divided by 100 and subtracting this value from the sum of observed response for each component when applied alone. Synergism of the combination is then determined by comparing the observed response of the combination to the expected (or predicted) response as calculated from the observed response of each individual component alone. If the observed response of the combination is greater than the expected (or predicted) response then the combination is said to be synergistic and falls within the definition of synergistic effect. (Colby, S. R., Weeds, 1967(15), p. 20-22).

[2] = 20° C.; cited from earlier work
[3] = cited from earlier work
[4] = cited from earlier work; for DT50 hydrolysis: 40° C.; for DT 50 (calculated) hydrolysis: 20° C.
crop plants = details: cited from earlier work
mice = details: cited from earlier work
[5] = test system: nematodes and spider mites; details: cited from earlier work
[6] = mammals, oral administration, almost entirely in the urine; cited from earlier work

COP(=O)(NC(C)=O)SC (stereo not shown) [Acephate, O,S-dimethylacetylphosphoramidothioate]
Observed Mortality % ([1]; Acephate 600 ppm alone): 52.50% | Observed Mortality % ([1]; Acephate 700 ppm alone): 60.00% | Observed Mortality % ([1]; Acephate 800 ppm alone): 70.00% | solubility in water [2]: about 790 g/l | solubility in acetone ([3]; 20° C.): 151 mg/mL (≈ 824 mM) | solubility in benzene ([3]; 20° C.): 16 mg/mL (≈ 87.4 mM) | solubility in ethanol ([3]; 20° C.): > 100 mg/mL | solubility in ethyl acetate ([3]; 20° C.): 35 mg/mL (≈ 191 mM) | solubility in hexane ([3]; 20° C.): 0.1 mg/mL (≈ 0.546 mM) | DT50 hydrolysis ([4]; pH 3): 710 h | DT50 hydrolysis ([4]; pH 9): 60 h | phytotoxicity to crop plants (in words) (crop plants): non-phytotoxic to most crop plants

O=[N+]([O-])NC1=NCCN1Cc1ccc(Cl)nc1 [Imidacloprid, 1-(6-chloro-3-pyridylmethyl)-N-nitroimidazolidin-2-yldeneamine]
Observed Mortality % ([1]; Imidacloprid 20 ppm alone): 47.30% | acute oral LD50 (mice): 150 mg/kg | effect on nematodes and spider mites [5]: no effect | solubility in dichloromethane ([3]; 20° C.): 55 mg/mL (≈ 215 mM) | solubility in hexane ([3]; 20° C.): < 0.1 mg/mL | solubility in isopropanol ([3]; 20° C.): 1.2 mg/mL (≈ 4.69 mM) | solubility in toluene ([3]; 20° C.): 0.68 mg/mL (≈ 2.66 mM)

CCN(CC)C(=O)C(Cl)=C(C)OP(=O)(OC)OC [Phosphamidon, 2-chloro-2-diethylcarbamoyl-1-methylvinyldimethylphosphate]
Observed Mortality % ([1]; Phosphamidon 320 ppm alone): 60.0% | Observed Mortality % ([1]; Phosphamidon 370 ppm alone): 65% | Observed Mortality % ([1]; Phosphamidon 400 ppm alone): 72.0% | dose excreted within 24 hours [6]: 85-90% | DT 50 (calculated) hydrolysis ([4]; pH 5): 60 days | DT 50 (calculated) hydrolysis ([4]; pH 7): 54 days | DT 50 (calculated) hydrolysis ([4]; pH 9): 12 days | hydrolysis in alkali (in words) ([4]; alkali): rapidly hydrolysed

(E)-N′-[(6-chloro-3-pyridyl)methyl]-N-cyano-N-methylacetamidine [Acetamiprid]
solubility in organic solvents (in words) ([3]; acetone, methanol, ethanol, dichloromethane, chloroform, acetonitrile and tetrahydrofuron): Soluble

Source: US7445791B2, “Synergistic insecticidal composition containing Chloronicotynyle and Organosphosphorus compounds” (priority 2004, dated 2008)
